# Laboratory results as given in patent US10870647B2, “Imidazopyridine derivative, method for preparing same, and pharmaceutical composition containing same as active ingredient for preventing or treating cancer” (DAEGU-GYEONGBUK MEDICAL INNOVATION FOUNDATION, priority 2016, dated 2020).
# What was measured:
# Assay in all cases: Kinase selectivity, scanMAX Kinase assay panel (DiscoverX), % control at 1 uM
# Type in all cases: binding
# [1] = molecular target: T1, scanMAX Kinase assay panel (Homo sapiens, UniProt P15056); conditions: BRAF; 1 uM; read-out: Percent Control (%)
# T1 construct: purchased DiscoverX
# T1 sequence (P15056 whole entry): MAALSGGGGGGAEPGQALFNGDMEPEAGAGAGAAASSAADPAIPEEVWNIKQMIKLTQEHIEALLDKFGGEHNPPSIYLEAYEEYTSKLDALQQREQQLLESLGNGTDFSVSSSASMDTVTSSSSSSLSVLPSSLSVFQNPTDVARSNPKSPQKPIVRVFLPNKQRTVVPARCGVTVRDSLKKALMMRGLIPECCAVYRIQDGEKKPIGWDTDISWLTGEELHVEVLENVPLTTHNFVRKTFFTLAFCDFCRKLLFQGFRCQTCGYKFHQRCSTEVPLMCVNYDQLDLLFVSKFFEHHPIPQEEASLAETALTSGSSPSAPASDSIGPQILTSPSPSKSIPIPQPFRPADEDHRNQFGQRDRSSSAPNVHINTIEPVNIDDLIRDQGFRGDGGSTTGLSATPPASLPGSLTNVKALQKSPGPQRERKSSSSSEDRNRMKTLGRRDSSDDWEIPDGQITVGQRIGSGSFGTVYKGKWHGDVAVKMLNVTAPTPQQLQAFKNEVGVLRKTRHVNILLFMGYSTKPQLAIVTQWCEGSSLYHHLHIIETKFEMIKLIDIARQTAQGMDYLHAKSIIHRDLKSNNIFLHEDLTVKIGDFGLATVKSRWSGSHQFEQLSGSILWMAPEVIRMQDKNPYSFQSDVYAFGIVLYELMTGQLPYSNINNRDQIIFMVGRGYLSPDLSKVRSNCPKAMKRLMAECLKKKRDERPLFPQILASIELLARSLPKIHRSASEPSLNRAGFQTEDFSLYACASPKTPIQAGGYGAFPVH
# In short: (§1)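 Each kinase was first exposed to the test compound at 1 uM in DMSO. Signal was then normalised to positive and negative controls to give % control. Finally, any enzyme showing <35% control was judged inhibited.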
# [2] = molecular target: T2, scanMAX Kinase assay panel (Homo sapiens, UniProt Q9Y5S2); conditions: MRCKB; 1 uM; read-out: Percent Control (%)
# T2 construct: purchased DiscoverX
# T2 sequence (Q9Y5S2 whole entry): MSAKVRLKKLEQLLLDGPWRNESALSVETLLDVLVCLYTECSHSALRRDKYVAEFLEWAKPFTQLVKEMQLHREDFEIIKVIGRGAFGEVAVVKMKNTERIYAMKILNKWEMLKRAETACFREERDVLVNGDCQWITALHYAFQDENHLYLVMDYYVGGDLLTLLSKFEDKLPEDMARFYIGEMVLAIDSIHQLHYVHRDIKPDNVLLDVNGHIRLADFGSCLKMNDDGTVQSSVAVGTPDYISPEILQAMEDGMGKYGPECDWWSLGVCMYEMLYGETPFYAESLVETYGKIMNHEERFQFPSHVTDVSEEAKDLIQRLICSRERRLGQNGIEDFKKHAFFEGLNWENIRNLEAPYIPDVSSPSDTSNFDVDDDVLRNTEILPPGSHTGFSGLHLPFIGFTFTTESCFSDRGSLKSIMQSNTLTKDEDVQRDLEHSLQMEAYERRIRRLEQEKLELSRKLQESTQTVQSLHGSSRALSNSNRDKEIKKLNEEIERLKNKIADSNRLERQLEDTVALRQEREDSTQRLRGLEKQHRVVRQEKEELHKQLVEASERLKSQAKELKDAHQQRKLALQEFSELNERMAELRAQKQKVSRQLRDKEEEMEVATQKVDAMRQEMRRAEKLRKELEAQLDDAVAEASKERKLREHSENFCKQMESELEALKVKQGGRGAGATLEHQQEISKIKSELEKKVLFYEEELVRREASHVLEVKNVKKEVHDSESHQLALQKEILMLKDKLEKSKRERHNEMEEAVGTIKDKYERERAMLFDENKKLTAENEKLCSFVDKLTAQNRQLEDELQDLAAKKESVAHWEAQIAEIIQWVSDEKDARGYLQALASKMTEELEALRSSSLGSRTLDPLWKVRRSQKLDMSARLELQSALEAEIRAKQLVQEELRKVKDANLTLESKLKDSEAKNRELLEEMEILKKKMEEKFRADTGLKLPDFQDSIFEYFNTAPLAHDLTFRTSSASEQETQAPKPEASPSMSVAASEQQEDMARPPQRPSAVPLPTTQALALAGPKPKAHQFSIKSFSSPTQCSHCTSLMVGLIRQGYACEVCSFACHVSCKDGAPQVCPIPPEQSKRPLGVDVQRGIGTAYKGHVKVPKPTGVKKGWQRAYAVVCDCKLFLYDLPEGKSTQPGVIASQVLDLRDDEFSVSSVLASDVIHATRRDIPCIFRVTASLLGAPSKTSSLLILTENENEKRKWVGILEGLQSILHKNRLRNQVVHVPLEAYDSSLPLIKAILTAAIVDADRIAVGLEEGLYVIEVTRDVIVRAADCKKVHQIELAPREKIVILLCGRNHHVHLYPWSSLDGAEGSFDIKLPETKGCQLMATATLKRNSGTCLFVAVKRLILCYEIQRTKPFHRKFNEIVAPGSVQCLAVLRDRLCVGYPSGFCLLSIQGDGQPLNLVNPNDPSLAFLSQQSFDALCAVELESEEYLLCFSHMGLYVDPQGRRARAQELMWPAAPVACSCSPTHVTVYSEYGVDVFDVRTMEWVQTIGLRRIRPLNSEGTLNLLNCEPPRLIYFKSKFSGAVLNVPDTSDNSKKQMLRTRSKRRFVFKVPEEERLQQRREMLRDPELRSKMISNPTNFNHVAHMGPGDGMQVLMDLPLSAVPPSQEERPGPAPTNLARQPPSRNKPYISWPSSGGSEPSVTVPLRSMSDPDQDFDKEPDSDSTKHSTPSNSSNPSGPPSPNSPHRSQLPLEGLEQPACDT
# In short: as §1
# [3] = molecular target: T3, scanMAX Kinase assay panel (Homo sapiens, UniProt Q56UN5); conditions: YSK4; 1 uM; read-out: Percent Control (%)
# T3 construct: purchased DiscoverX
# T3 sequence (Q56UN5 1-1328): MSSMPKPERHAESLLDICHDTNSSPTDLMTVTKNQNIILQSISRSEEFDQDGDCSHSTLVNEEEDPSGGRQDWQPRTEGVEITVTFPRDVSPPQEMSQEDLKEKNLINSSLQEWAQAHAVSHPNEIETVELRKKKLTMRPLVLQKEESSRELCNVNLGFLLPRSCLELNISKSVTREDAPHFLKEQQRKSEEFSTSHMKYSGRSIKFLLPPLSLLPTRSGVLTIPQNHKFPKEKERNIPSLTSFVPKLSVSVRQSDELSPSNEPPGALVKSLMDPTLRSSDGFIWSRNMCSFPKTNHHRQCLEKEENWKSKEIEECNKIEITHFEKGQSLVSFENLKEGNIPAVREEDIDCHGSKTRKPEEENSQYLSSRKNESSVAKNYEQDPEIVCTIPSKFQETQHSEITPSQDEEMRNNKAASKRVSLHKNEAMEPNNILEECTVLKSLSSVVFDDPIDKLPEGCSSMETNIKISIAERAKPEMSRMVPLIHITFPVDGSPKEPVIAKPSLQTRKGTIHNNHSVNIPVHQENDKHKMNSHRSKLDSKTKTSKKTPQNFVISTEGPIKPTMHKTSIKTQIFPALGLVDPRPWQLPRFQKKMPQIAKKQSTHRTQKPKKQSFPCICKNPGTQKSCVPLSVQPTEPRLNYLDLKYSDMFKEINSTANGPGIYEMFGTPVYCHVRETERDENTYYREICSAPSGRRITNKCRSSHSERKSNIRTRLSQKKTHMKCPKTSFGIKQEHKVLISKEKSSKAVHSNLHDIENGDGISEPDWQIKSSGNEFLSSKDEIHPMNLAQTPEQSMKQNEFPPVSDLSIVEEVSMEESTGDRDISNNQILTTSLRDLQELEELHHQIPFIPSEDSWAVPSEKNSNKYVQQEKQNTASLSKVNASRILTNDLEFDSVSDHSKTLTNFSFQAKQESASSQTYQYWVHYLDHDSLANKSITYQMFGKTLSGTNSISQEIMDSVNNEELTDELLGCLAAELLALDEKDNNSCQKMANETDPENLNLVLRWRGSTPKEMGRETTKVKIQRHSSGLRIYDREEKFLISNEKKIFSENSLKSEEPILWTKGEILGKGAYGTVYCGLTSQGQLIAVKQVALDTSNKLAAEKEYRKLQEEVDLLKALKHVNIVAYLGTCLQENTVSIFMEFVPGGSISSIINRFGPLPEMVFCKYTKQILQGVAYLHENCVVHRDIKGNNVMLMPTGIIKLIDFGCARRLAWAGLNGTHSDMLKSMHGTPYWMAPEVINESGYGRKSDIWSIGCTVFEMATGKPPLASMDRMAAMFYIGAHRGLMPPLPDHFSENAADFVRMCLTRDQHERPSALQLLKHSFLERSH
# In short: as §1
# [4] = molecular target: T4, scanMAX Kinase assay panel (Homo sapiens, UniProt Q9UQ88); conditions: CDC2L2; 1 uM; read-out: Percent Control (%)
# T4 construct: purchased DiscoverX
# T4 sequence (Q9UQ88 1-783): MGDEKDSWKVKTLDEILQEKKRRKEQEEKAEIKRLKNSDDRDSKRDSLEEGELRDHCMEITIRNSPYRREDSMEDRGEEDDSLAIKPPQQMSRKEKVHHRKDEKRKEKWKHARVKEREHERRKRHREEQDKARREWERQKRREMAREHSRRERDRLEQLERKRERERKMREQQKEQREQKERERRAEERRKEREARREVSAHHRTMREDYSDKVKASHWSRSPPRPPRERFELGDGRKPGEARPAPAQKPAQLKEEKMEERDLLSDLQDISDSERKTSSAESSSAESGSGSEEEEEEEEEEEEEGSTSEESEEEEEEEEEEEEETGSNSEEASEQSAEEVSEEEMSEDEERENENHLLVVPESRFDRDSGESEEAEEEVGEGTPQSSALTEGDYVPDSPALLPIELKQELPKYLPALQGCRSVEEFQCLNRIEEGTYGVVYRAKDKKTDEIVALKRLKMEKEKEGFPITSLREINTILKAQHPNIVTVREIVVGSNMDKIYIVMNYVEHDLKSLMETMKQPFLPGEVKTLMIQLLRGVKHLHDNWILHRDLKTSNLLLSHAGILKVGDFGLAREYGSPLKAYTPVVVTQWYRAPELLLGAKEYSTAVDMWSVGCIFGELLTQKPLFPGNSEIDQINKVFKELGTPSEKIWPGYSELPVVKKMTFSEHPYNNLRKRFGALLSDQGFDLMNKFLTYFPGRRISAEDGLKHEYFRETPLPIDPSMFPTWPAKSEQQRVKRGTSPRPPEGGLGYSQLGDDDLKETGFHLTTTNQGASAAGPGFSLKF
# In short: as §1
# [5] = molecular target: T5, scanMAX Kinase assay panel (Homo sapiens, UniProt P45985); conditions: MEK4; 1 uM; read-out: Percent Control (%)
# T5 construct: purchased DiscoverX
# T5 sequence (P45985 1-399): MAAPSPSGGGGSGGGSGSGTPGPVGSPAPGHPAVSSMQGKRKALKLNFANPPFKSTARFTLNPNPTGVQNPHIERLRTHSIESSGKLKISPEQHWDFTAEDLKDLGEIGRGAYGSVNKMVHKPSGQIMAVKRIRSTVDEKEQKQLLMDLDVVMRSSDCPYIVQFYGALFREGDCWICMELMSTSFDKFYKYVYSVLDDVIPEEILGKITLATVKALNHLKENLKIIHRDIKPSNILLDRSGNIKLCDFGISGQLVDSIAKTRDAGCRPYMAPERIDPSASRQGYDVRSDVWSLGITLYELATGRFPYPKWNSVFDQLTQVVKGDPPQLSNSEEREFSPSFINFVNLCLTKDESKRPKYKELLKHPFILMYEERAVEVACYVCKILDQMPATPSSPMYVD
# In short: as §1
smiles,measurement,setting,value
Cc1ccc(NC(=O)C2(C(=O)Nc3ccc(F)cc3)CC2)cc1C#Cc1cnc2c(Nc3cnn(C(C)C)c3)cccn12 [Example 78],remaining binding at 1 µM,[1],100%
same,remaining binding at 1 µM,[2],100%
same,remaining binding at 1 µM,[3],71%
same,remaining binding at 1 µM,[4],100%
same,remaining binding at 1 µM,[5],97%
"Cc1cn(-c2cc(NC(=O)c3ccc(C)c(C#Cc4cnc5c(Nc6cnn(C)c6)cccn45)c3)cc(C(F)(F)F)c2)cn1 [Example 12, 4-methyl-N-(3-(4-methyl-1H-imidazol-1-yl)-5-(trifluoromethyl)phenyl)-3-((8-((1-methyl-1H-pyrazol-4-yl)amino)imidazo[1,2-a]pyridin-3-yl)ethynyl)benzamide]",remaining binding at 1 µM,[1],80%
same,remaining binding at 1 µM,[2],94%
same,remaining binding at 1 µM,[3],2%
same,remaining binding at 1 µM,[4],72%
same,remaining binding at 1 µM,[5],100%
"Cc1ccc(C(=O)Nc2ccc(CN3CCN(C)CC3)c(C(F)(F)F)c2)cc1C#Cc1cnc2c(Nc3cnn(C)c3)cccn12 [Example 1, 4-methyl-3-((8-((1-methyl-1H-pyrazol-4-yl)amino)imidazo[1,2-a]pyridin-3-yl)ethynyl)-N-(4-((4-methylpiperazin-1-yl)methyl)-3-(trifluoromethyl)phenyl)benzamide]",remaining binding at 1 µM,[1],18%
same,remaining binding at 1 µM,[2],99%
same,remaining binding at 1 µM,[3],2%
same,remaining binding at 1 µM,[4],28%
same,remaining binding at 1 µM,[5],98%
